In ChEMBL document CHEMBL5356947, “Mitochondria-targeted biotin-conjugated BODIPYs for cancer imaging and therapy” (RSC Med Chem, 2023):

How the values were obtained:
MDA-MB-231 [1] = assay: Cell cycle arrest in human MDA-MB-231 cells assessed as accumulation of cells at S phase incubated for 24 hrs by RNase A/PI staining based flow cytometric analysis relative to control; assay type: functional
MDA-MB-231 [2] = assay: Induction of apoptosis in human MDA-MB-231 cells assessed as necrotic cells at 15 nM incubated for 24 hrs under dark condition by Annexin V-FITC/PI staining based flow cytometric analysis relative to control; assay type: functional
[3] = Fluorescence property of the compound assessed as fluorescence quantum yield in EtOH; assay type: physicochemical
MDA-MB-231 [4] = assay: Cell cycle arrest in human MDA-MB-231 cells assessed as accumulation of cells at S phase at 30 nM preincubated with compound for 15 mins followed by light irradiation and measured after 3 to 24 hrs by RNase A/PI staining based flow cytometric analysis (reference value: 16.4%); assay type: functional; conditions: time 195-1455 min
MDA-MB-231 [5] = assay: Induction of oxidative stress on human MDA-MB-231 cells assessed as increase in ROS population incubated for 24 hrs under dark condition by CM-H2DCFDA staining based analysis relative to control; assay type: functional
[6] = Absorption property of the compound assessed as triplet quantum yield by UV-vis spectrophotometer; assay type: physicochemical
HT-29 = assay: Photocytotoxicity against human HT-29 cells assessed as inhibition of cell growth incubated for 24 hrs by MTT assay; assay type: functional, cell-based; conditions: HT-29, 24 h
MDA-MB-231 [7] = assay: Induction of apoptosis in human MDA-MB-231 cells assessed as late apoptotic cells at 15 nM preincubated with compound for 24 hrs followed by 540 nm light irradiation for 1 hrs by Annexin V-FITC/PI staining based flow cytometric analysis (reference value: 17.1%); assay type: functional; conditions: time 25 hrs
[8] = Drug localization in mitochondria of human MDA-MB-231 cells incubated for 1 hrs by Mitotracker deep red/Hoechst staining based confocal microscopic analysis; assay type: ADME; conditions: mda-mb-231, 1 h
MDA-MB-231 [9] = assay: Cell cycle arrest in human MDA-MB-231 cells assessed as accumulation of cells at G2/M phase incubated for 24 hrs by RNase A/PI staining based flow cytometric analysis relative to control; assay type: functional
MDA-MB-231 [10] = assay: Induction of apoptosis in human MDA-MB-231 cells assessed as necrotic cells at 15 nM preincubated with compound for 24 hrs followed by 540 nm light irradiation for 1 hrs by Annexin V-FITC/PI staining based flow cytometric analysis (reference value: 2.7%); assay type: functional; conditions: time 25 hrs
[11] = Emission property of the compound by fluorescence spectrophotometer analysis; assay type: physicochemical
[12] = Absorption property of the compound assessed as molar extinction co-effecient by UV-vis spectrophotometer; assay type: physicochemical
MDA-MB-231 [13] = assay: Photocytotoxicity against human MDA-MB-231 cells assessed as inhibition of cell growth incubated for 24 hrs by MTT assay; assay type: functional, cell-based; conditions: MDA-MB-231, 24 h
MDA-MB-231 [14] = assay: Induction of apoptosis in human MDA-MB-231 cells assessed as necrotic cells at 30 nM preincubated with compound for 24 hrs followed by 540 nm light irradiation for 1 hrs by Annexin V-FITC/PI staining based flow cytometric analysis (reference value: 2.7%); assay type: functional; conditions: time 25 hrs
MDA-MB-231 [15] = assay: Cell cycle arrest in human MDA-MB-231 cells assessed as accumulation of cells at S phase at 15 nM preincubated with compound for 15 mins followed by light irradiation and measured after 3 to 24 hrs by RNase A/PI staining based flow cytometric analysis (reference value: 16.4%); assay type: functional; conditions: time 195-1455 min
[16] = Absorption property of the compound by UV-vis spectrophotometer; assay type: physicochemical
MDA-MB-231 [17] = assay: Cell cycle arrest in human MDA-MB-231 cells assessed as accumulation of cells at G2/M phase at 15 nM preincubated with compound for 15 mins followed by light irradiation and measured after 3 to 24 hrs by RNase A/PI staining based flow cytometric analysis (reference value: 12.9%); assay type: functional; conditions: time 195-1455 min
MDA-MB-231 [18] = assay: Induction of apoptosis in human MDA-MB-231 cells assessed as early apoptotic cells at 15 nM incubated for 24 hrs under dark condition by Annexin V-FITC/PI staining based flow cytometric analysis relative to control; assay type: functional
MDA-MB-231 [19] = assay: Induction of oxidative stress on human MDA-MB-231 cells assessed as increase in ROS population at 15 nM preincubated with compound for 24 hrs followed by 540 nm light irradiation for 1 hrs by CM-H2DCFDA staining based analysis (reference value: 1.6%); assay type: functional; conditions: time 25 hrs
MCF7 = assay: Photocytotoxicity against human MCF7 cells assessed as inhibition of cell growth incubated for 24 hrs by MTT assay; assay type: functional, cell-based; conditions: MCF7, 24 h
MDA-MB-231 [20] = assay: Cell cycle arrest in human MDA-MB-231 cells assessed as accumulation of cells at G1 phase at 30 nM preincubated with compound for 15 mins followed by light irradiation and measured after 3 to 24 hrs by RNase A/PI staining based flow cytometric analysis (reference value: 65.7%); assay type: functional; conditions: time 195-1455 min
[21] = Photocytotoxicity against human MCF-10A cells assessed as inhibition of cell growth incubated for 24 hrs by MTT assay; assay type: toxicity, cell-based
MDA-MB-231 [22] = assay: Induction of apoptosis in human MDA-MB-231 cells assessed as late apoptotic cells at 30 nM preincubated with compound for 24 hrs followed by 540 nm light irradiation for 1 hrs by Annexin V-FITC/PI staining based flow cytometric analysis (reference value: 17.1%); assay type: functional; conditions: time 25 hrs
MDA-MB-231 [23] = assay: Cell cycle arrest in human MDA-MB-231 cells assessed as accumulation of cells at G2/M phase at 30 nM preincubated with compound for 15 mins followed by light irradiation and measured after 3 to 24 hrs by RNase A/PI staining based flow cytometric analysis (reference value: 12.9%); assay type: functional; conditions: time 195-1455 min
MDA-MB-231 [24] = assay: Induction of apoptosis in human MDA-MB-231 cells assessed as early apoptotic cells at 30 nM preincubated with compound for 24 hrs followed by 540 nm light irradiation for 1 hrs by Annexin V-FITC/PI staining based flow cytometric analysis (reference value: 19.2%); assay type: functional; conditions: time 25 hrs
MDA-MB-231 [25] = assay: Induction of oxidative stress on human MDA-MB-231 cells assessed as increase in ROS population at 30 nM preincubated with compound for 24 hrs followed by 540 nm light irradiation for 1 hrs by CM-H2DCFDA staining based analysis (reference value: 1.6%); assay type: functional; conditions: time 25 hrs
MDA-MB-231 [26] = assay: Cell cycle arrest in human MDA-MB-231 cells assessed as accumulation of cells at G1 phase incubated for 24 hrs by RNase A/PI staining based flow cytometric analysis relative to control; assay type: functional
[27] = Absorption property of the compound assessed as decay lifetime; assay type: physicochemical
[28] = Photosensitizing ability of the compound in MeOH assessed as singlet oxygen generation at 408 nm measured upto 120 sec by DPBF based assay; assay type: functional
HCT-116 = assay: Photocytotoxicity against human HCT-116 cells assessed as inhibition of cell growth incubated for 24 hrs by MTT assay; assay type: functional, cell-based; conditions: HCT-116, 24 h
MDA-MB-231 [29] = assay: Induction of apoptosis in human MDA-MB-231 cells assessed as late apoptotic cells at 15 nM incubated for 24 hrs under dark condition by Annexin V-FITC/PI staining based flow cytometric analysis relative to control; assay type: functional
MDA-MB-231 [30] = assay: Cell cycle arrest in human MDA-MB-231 cells assessed as accumulation of cells at G1 phase at 15 nM preincubated with compound for 15 mins followed by light irradiation and measured after 3 to 24 hrs by RNase A/PI staining based flow cytometric analysis (reference value: 65.7%); assay type: functional; conditions: time 195-1455 min
MDA-MB-231 [31] = assay: Induction of apoptosis in human MDA-MB-231 cells assessed as early apoptotic cells at 15 nM preincubated with compound for 24 hrs followed by 540 nm light irradiation for 1 hrs by Annexin V-FITC/PI staining based flow cytometric analysis (reference value: 19.2%); assay type: functional; conditions: time 25 hrs
MDA-MB-231 [32] = assay: Induction of apoptosis in human MDA-MB-231 cells assessed as necrotic cells at 30 nM incubated for 24 hrs under dark condition by Annexin V-FITC/PI staining based flow cytometric analysis relative to control; assay type: functional
MDA-MB-231 [33] = assay: Induction of apoptosis in human MDA-MB-231 cells assessed as late apoptotic cells at 60 nM preincubated with compound for 24 hrs followed by 540 nm light irradiation for 1 hrs by Annexin V-FITC/PI staining based flow cytometric analysis (reference value: 17.1%); assay type: functional; conditions: time 25 hrs
MDA-MB-231 [34] = assay: Induction of apoptosis in human MDA-MB-231 cells assessed as necrotic cells at 60 nM preincubated with compound for 24 hrs followed by 540 nm light irradiation for 1 hrs by Annexin V-FITC/PI staining based flow cytometric analysis (reference value: 2.7%); assay type: functional; conditions: time 25 hrs
MDA-MB-231 [35] = assay: Cell cycle arrest in human MDA-MB-231 cells assessed as accumulation of cells at S phase at 60 nM preincubated with compound for 15 mins followed by light irradiation and measured after 3 to 24 hrs by RNase A/PI staining based flow cytometric analysis (reference value: 16.4%); assay type: functional; conditions: time 195-1455 min
MDA-MB-231 [36] = assay: Cell cycle arrest in human MDA-MB-231 cells assessed as accumulation of cells at G1 phase at 60 nM preincubated with compound for 15 mins followed by light irradiation and measured after 3 to 24 hrs by RNase A/PI staining based flow cytometric analysis (reference value: 65.7%); assay type: functional; conditions: time 195-1455 min
MDA-MB-231 [37] = assay: Induction of apoptosis in human MDA-MB-231 cells assessed as late apoptotic cells at 30 nM incubated for 24 hrs under dark condition by Annexin V-FITC/PI staining based flow cytometric analysis relative to control; assay type: functional
MDA-MB-231 [38] = assay: Induction of oxidative stress on human MDA-MB-231 cells assessed as increase in ROS population at 60 nM preincubated with compound for 24 hrs followed by 540 nm light irradiation for 1 hrs by CM-H2DCFDA staining based analysis (reference value: 2.5%); assay type: functional; conditions: time 25 hrs
MDA-MB-231 [39] = assay: Induction of apoptosis in human MDA-MB-231 cells assessed as early apoptotic cells at 60 nM preincubated with compound for 24 hrs followed by 540 nm light irradiation for 1 hrs by Annexin V-FITC/PI staining based flow cytometric analysis (reference value: 19.2%); assay type: functional; conditions: time 25 hrs
MDA-MB-231 [40] = assay: Cell cycle arrest in human MDA-MB-231 cells assessed as accumulation of cells at G2/M phase at 60 nM preincubated with compound for 15 mins followed by light irradiation and measured after 3 to 24 hrs by RNase A/PI staining based flow cytometric analysis (reference value: 12.9%); assay type: functional; conditions: time 195-1455 min
MDA-MB-231 [41] = assay: Induction of apoptosis in human MDA-MB-231 cells assessed as early apoptotic cells at 30 nM incubated for 24 hrs under dark condition by Annexin V-FITC/PI staining based flow cytometric analysis relative to control; assay type: functional
MDA-MB-231 [42] = assay: Induction of oxidative stress on human MDA-MB-231 cells assessed as increase in ROS population at 30 nM preincubated with compound for 24 hrs followed by 540 nm light irradiation for 1 hrs by CM-H2DCFDA staining based analysis (reference value: 2.5%); assay type: functional; conditions: time 25 hrs

Compound	Activity (MDA-MB-231 [1]) [%]	Activity [3]	Activity (MDA-MB-231 [4]) [%]	Activity (MDA-MB-231 [5]) [%]	Activity [6]	IC50 (HT-29) [nM]	Drug uptake [8]	Activity (MDA-MB-231 [9]) [%]	Activity [11] [nm]	Activity [12] [M⁻¹ cm⁻¹]	IC50 (MDA-MB-231 [13]) [nM]	Activity (MDA-MB-231 [14]) [%]	Activity [16] [nm]	IC50 (MCF7) [nM]	Activity (MDA-MB-231 [20]) [%]	IC50 at 24 h [21] [nM]	Activity (MDA-MB-231 [22]) [%]	Activity (MDA-MB-231 [23]) [%]	Activity (MDA-MB-231 [24]) [%]	Activity [28]	further results
CC1=C(I)C(C)=[N+]2C1=C(c1ccc(OCc3cn(CCOCCOCCOCCNC(=O)CCCCC4SCC5NC(=O)NC54)nn3)cc1)c1c(C)c(I)c(C)n1[B-]2(F)F (centres undefined)	17.7	0.032	14.7	14.2	0.4	27.5	Active	13.7	551	123000	18.7	21.4	534	21.8	62.2	196	43	22.9	8.3	0.33	Activity (MDA-MB-231 [2]): 3%; Activity (MDA-MB-231 [7]): 30%; Activity (MDA-MB-231 [10]): 7.3%; Activity (MDA-MB-231 [15]): 15.5%; Activity (MDA-MB-231 [17]): 21.8%; Activity (MDA-MB-231 [18]): 13%; Activity (MDA-MB-231 [19]): 41.6%; Activity (MDA-MB-231 [25]): 62.3%; Activity (MDA-MB-231 [26]): 64.8%; Time [27]: 3.6 microsec; IC50 (HCT-116): 22.5 nM; Activity (MDA-MB-231 [29]): 10.4%; Activity (MDA-MB-231 [30]): 59%; Activity (MDA-MB-231 [31]): 22.4%
O=C1OC2(c3cc(I)c(O)c(I)c3Oc3c2cc(I)c(O)c3I)c2c(Cl)c(Cl)c(Cl)c(Cl)c21	–	–	–	–	–	–	–	–	–	–	–	–	–	–	–	–	–	–	–	0.75	–
CC1=C(I)C(C)=[N+]2C1=C(c1ccc(OCc3cn(CCOCCOCCOCCOCCNC(=O)CCCCC4SCC5NC(=O)NC54)nn3)cc1)c1c(C)c(I)c(C)n1[B-]2(F)F (centres undefined)	18.1	0.039	14.6	5.9	0.44	88.2	Active	13.3	549	91000	52.2	12.1	533	54.1	63	177	11.2	19.2	10.5	0.34	Activity (MDA-MB-231 [32]): 5.8%; Activity (MDA-MB-231 [33]): 34.1%; Activity (MDA-MB-231 [34]): 40.1%; Activity (MDA-MB-231 [35]): 15.5%; Activity (MDA-MB-231 [36]): 58.7%; Activity (MDA-MB-231 [37]): 11.5%; Activity (MDA-MB-231 [38]): 92.4%; Activity (MDA-MB-231 [39]): 4.5%; Activity (MDA-MB-231 [40]): 22%; Activity (MDA-MB-231 [41]): 5.6%; Activity (MDA-MB-231 [26]): 63.3%; Time [27]: 2.5 microsec; Activity (MDA-MB-231 [42]): 92.3%; IC50 (HCT-116): 74.9 nM
